In one data set the target is T1, PTP1B (Homo sapiens, UniProt P18031).
T1 construct: purchased Upstate Biotechnology Inc. (Lake Placid, N.Y.)
Nature of the data set: In vitro PTPase assay, GST/PTP1B. Format: biochemical. As to conditions: 0.1 to 1 μg/ml. Here is the method:
In vitro PTPase activities were measured using the commercial protein tyrosine phosphatase assay kit (Upstate Biotechnology, Inc. (“UBI”)) following established procedure known to one of skill in the art. This assay measures the in vitro dephosphorylation of a synthetic phosphotyrosine peptide of the sequence Arg-Arg-Leu-Ile-Glu-Asp-Ala-Gle-T- -yr-Ala-Ala-Arg-Gly, wherein the tyrosine is phosphorylated (SEQ ID NO: 3). Briefly, 0.01 µg of GST/PTPase fusion proteins was incubated in 50 µl of Tris buffer (10 mM Tris, pH 7.4) containing different concentrations of inhibitors or chemicals (0-1,000 µg/ml) at 22° C. for 10 minutes, followed by addition of 0.2 mM of the phosphotyrosine peptide and incubation at 22° C. for 18 hours. 100 µl of Malachite Green solution was added and incubated for 5 minutes, and the absorbance at 660 nm was measured after 5 minutes.
In vitro PTPase assays were used to determine the effects of levamisole (Sigma), pentamidine (American Pharmaceutical Partners, Inc.), and ketoconazole (Sigma) on recombinant PTPases, following established procedures (Pathak et al., J. Imumol. 167, 3391 (2001); Pathak et al., Leukemia 16, 2285 (2002), Yi et al., J. Immunol. 169, 5978 (2002)) using a synthetic phosphotyrosine peptide or DiFMUP as the substrate as detailed above in section I.A.2.

For a further data set, the system named is DR cells. Kind of data set: DR lymphoma cell growth, MTT assay. Format: cell-based, human. As to conditions: day 6; single agent at 50 μg/ml and 100 μg/ml. Here is the method:
(§1) For cell proliferation assays, cells were grown in 10% FCS culture medium containing various amounts of IFNs and/or sodium stibogluconate in 96 well plates and cultured at 37° C. for 3 or 6 days as indicated. The numbers of viable cells in proliferation assays were determined by MTT assays as described in Phatak et al., J. Immunol. 167, 3391 (2001).

A further data set relates to C42 cells. Kind of data set: C42 prostate cancer cell growth. Type of data set: cell-based, human. As for the experimental part:
as §1

The subject of another data set is Renca cells. Kind of data set: Renca cell growth in culture, MTT assay. Format: cell-based, murine. As to conditions: SSG 6.25-200 μg/ml, 6 days; listed as SSG. The source says: Renca (Murphy, G. P., and W. J. Hrushesky. 1973. A murine renal cell carcinoma. J Natl Cancer Inst 50:1013), Jurkat (Gillis, S., and J. Watson. 1980. Biochemical and biological characterization of lymphocyte regulatory molecules. V. Identification of an interleukin 2-producing human leukemia T cell line. J Exp Med 152:1709) and WM9 (Forsberg, K., 1. Valyi-Nagy, C. H. Heldin, M. Herlyn, and B. Westermark. 1993. Platelet-derived growth factor (PDGF) in oncogenesis: development of a vascular connective tissue stroma in xenotransplanted human melanoma producing PDGF-BB. Proc Natl Acad Sci USA 90:393) cell lines were obtained from a colleague at the Cleveland Clinic Foundation (CCF) and cultured in RPMI 1640 medium supplemented with 10% fetal calf serum (FCS). […] SSG has been described previously (Yi, T., M. K. Pathak, D. J. Lindner, M. E. Ketterer, C. Farver, and E. C. Borden. 2002. Anticancer activity of sodium stibogluconate in synergy with IFNs. J Immunol 169:5978). For cell growth inhibition assays, cells were cultured in absence or presence of various amounts of SSG for 6 days with viable cells quantified by MTT assays as described elsewhere (Pathak, M. K., and T. Yi. 2001. Sodium stibogluconate is a potent inhibitor of protein tyrosine phosphatases and augments cytokine responses in hemopoietic cell lines. J Immunol 167:3391).
In general terms: Tetrazolium dyes change colour on reduction, which living cells bring about.

The subject of a further data set is Jurkat cells. Nature of the data set: IFN-gamma secretion by Jurkat cells, ELISA. Type of data set: cell-based, human. As to conditions: 16 hrs. As for the experimental part:
Jurkat cells were cultured in the absence or presence of various amounts of SSG for 16 hours. The cells and culture medium supernatants were separated by centrifugation (1,000 g, 10 min). The amounts of IFN-gamma in the culture medium supernatants were quantified using an ELISA kit (R.D. system, Minneapolis, Minn.) following the manufacturer's protocol.
A general note: An ELISA detects its analyte on a solid surface through an enzyme-linked reagent.

Data set [1] has as its system A549, Hey, LoVo, SK-N-SH, U251 and DU145 cell lines. Nature of the data set: Growth of human cancer cell lines that express PRLs, MTT assay. Type of data set: cell-based. As to conditions: 100 μg/ml, day 6. As for the experimental part:
NIH3T3 (Yi, et al., Blood 85, 87 (1995)), WM9 (Forsberg, et al., Proc. Nat. Acad. Sci. USA 90, 393 (1993)), DU145 (Mickey, et al., Cancer Res. 37, 4049 (1977)), LoVo (Drewinko, et al., Cancer Res. 36, 467 (1976)), HEY (Buick, et al., Cancer Res. 45, 3668 (1985)), U251 (Yoshida, et al., Cancer 50, 410 (1982)), A549 (Giard, et al., J. Natl. Cancer Inst. 51, 1417 (1973)) and SK-N-SH (Helson, et al., Cancer Res. 35, 2594 (1975)) cell lines have been described and were cultured in RPMI 1640 supplemented with 10% fetal calf serum (FCS). For measurement of sodium stibogluconate effects on cell growth in vitro, cells were cultured in the absence (−) or presence (+) of various amounts of sodium stibogluconate for 6 days with viable cells quantified by MTT assays (Mosmann, J. Immunol. Methods 65, 55 (1983)). Percentages of growth inhibition by sodium stibogluconate were calculated (.+−.x %).

The next data set relates to DU145R cells. Nature of the data set: DU145R cell growth, MTT assay. Format: cell-based, human. As to conditions: day 6 culture. As for the experimental part: DU145 cells were cultured in the presence of sodium stibogluconate (100 µg/ml) in 48 well plates for 3 weeks. Cells from a well containing a single colony were transferred to flasks, cultured in sodium stibogluconate-free medium for 3 weeks and used as DU145R cells for further characterization. Growth of DU145R cells in the absence or presence of sodium stibogluconate in day 6 culture was determined by MTT assays. cDNAs of the coding region of PRLs were derived by RT-PCR from DU145 and DU145R cells and sequenced using primers described below.

The conditions of data set [2]: cited from earlier work.

The values that follow come from US20080089860A1, “Therapeutic compositions and methods useful in treating cancer” (priority 2006, published 2008).

Where only a bound is given, the exact number is not on record here.

T1 sequence (P18031 whole entry, species assumed): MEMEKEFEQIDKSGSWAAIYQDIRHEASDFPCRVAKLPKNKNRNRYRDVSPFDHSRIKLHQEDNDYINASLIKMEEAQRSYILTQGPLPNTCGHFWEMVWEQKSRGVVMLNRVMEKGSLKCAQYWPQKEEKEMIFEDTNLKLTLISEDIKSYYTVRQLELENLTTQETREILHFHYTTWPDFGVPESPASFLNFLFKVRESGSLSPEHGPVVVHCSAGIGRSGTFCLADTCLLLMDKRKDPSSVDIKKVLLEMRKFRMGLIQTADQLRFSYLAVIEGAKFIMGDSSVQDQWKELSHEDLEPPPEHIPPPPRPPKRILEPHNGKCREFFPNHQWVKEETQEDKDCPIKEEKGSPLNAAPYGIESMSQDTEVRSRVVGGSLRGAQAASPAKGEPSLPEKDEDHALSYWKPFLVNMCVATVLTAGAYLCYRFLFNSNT

As to `O.O.O.O.O.O.O.O.O.O=C([O-])[C@@H]1[O][Sb]2([O-])([O][Sb]34([OH])[O][C@H]([C@H](O)CO)[C@H]([O]3)[C@H](C(=O)[O-])[O]4)[O][C@H]([C@H](O)CO)[C@@H]1[O]2.[Na+].[Na+].[Na+]` [sodium stibogluconate], the “inhibition of PTP1B activity” value on PTP1B is on record as “only modestly effective”. Further, the “growth inhibition of DR cells” value in the data set with DR cells is listed as “complete or near complete killing”. Also, the “response of C42 prostate cancer cell line” value in the data set on C42 cells is reported as “highly resistant”. The “Renca cell growth in culture” value in the data set with Renca cells is “failed to inhibit Renca cell proliferation in culture”. Further, the “IFN-gamma secretion by Jurkat T cells” value in the data set with Jurkat cells is “increased amounts of IFN-gamma”. Further, in data set [1], the “cell killing of the cell lines” value is on record as “near-complete cell killing”. Besides, the “growth of DU145R clone in comparison to parental DU145” value in the data set with DU145R cells is “growth resistance”. In addition, the “clinical tolerability at therapeutic dosages” value in data set [2] (human, in vivo) is reported as “well tolerated”. In addition, the serum levels in data set [2] (standard dosage 10-20 mg/kg/day) is no less than 10000 ng/mL.
